Tests used:
[1] = test system: human adipocytes; experiment: production of cAMP in human adipocytes (lipolysis activation); type: cell-based
Text: The aim of this study is to study the effect of 9-HODE on the production of cAMP (cyclic adenosine monophosphate) which is a lipolysis activator, in human adipocytes. The effect of 9-HODE is studied relative to that of adrenaline and caffeine which are two molecules that are known for their lipolysis-stimulating effects.

[2] = skin penetration in vitro on human skin with Franz cells; type: in vitro ADME
Procedure: A study of skin penetration is carried out in vitro on human skin with Franz cells. These cells comprise a surface area of human skin of 1.76 cm^2 on which is placed 800 μg of 9-HODE. After 6 hours of contact, an assay of the 9-HODE is carried out by gas chromatography at the surface of the human skin sample, in the epidermis, in the dermis and in the receiving phase.

[3] = 9-HODE 10^−4 M, human adipocytes
[4] = 800 μg on 1.76 cm^2 human skin, after 6 hours of contact

SMILES	concentration of cAMP, times greater than that obtained with caffeine ([1]; 9-HODE 10^−3 M, human adipocytes)	increase in cAMP relative to adrenaline [1, 3]	increase in cAMP relative to caffeine [1, 3]	concentration of cAMP ([1]; 9-HODE concentration of 10^−3 M, human adipocytes)	conclusion on lipolysis activation in vitro ([1]; in vitro, by stimulating production of cAMP by adipocytes)	9-HODE assayed at the surface of the skin [2, 4]	9-HODE assayed in the dermis [2, 4]	9-HODE assayed in the epidermis [2, 4]	9-HODE assayed in the receiving phase [2, 4]	skin-penetrating power ([2]; human skin, Franz cells)	concentration of cAMP ([1]; caffeine comparator, concentration not given, human adipocytes)
CCCCCC=CC=CC(O)CCCCCCCC(=O)O (centres unmarked) [9-HODE, 9-hydroxy-10,12-octadecadienoic acid]	10 times	greater than that obtained, irrespective of the concentration, by adrenaline	equivalent to that of caffeine 10^−3 M	7.940 femtomol of cAMP/million adipocytes	powerful lipolysis activator	33%	32%	11%	24%	high skin-penetrating power	–
Cn1c(=O)c2c(ncn2C)n(C)c1=O [caffeine, reference compound]	–	–	–	–	–	–	–	–	–	–	799 femtomol of cAMP/million adipocytes

From patent US6348609B1, “Method for obtaining an oil that is rich in hydroxyoctadecadienoic fatty acids (HODE) or the esters thereof from a mixture containing linoleic acid or the esters thereof” (Laboratoires Arkopharma, priority 1999, dated 2002)
